Patent US20160150792A1, “WATER PURIFICATION COMPOSITIONS AND APPLICATIONS FOR SAME” (priority 2011, published 2016)

Tested on: mixture of E. coli and P. aeruginosa
Test: Disinfection of contaminated surgical instruments and objects
Format: cell-based, E. coli (ATCC 11229) and P. aeruginosa (ATCC 15442)
Settings: immersion 30 minutes; instruments contaminated with 7.0×10^9 bacteria
Description: Cultures: E. coli (ATCC11229) and P. aeruginosa (ATCC15442) from the American Type Culture Collection (ATCC) were grown in Tryptic Soy Broth (TSB) according to the instructions provided by ATCC.
Sterile surgical instruments (probes, scalpel handles, and forceps) and other objects were inoculated with 20 μL of the concentrated culture and allowed to dry for 30 minutes in a laminar flow hood. Contaminated surgical instruments were treated with SAFI (various copper or copper/zinc mixes at pH 3.2 or pH 0.2) by immersing the objects in 40 mL sterile water containing 1, 10, or 100 ppm SAFI for time periods of 30 minutes −22 hours. Comparison treatments included no treatment (control), boiling the instruments in water for 30 minutes, immersing the instruments in 40 mL of 70% EtOH for 30 minutes, or autoclaving the instruments at 15 lbs/in^2 at 121° C. for 20 minutes. […]
The ability of a solution of SAFI to disinfect contaminated surgical instruments was determined by contaminating forceps, scalpel handles, and probes with 20 uL of a concentrated mixture of E. coli and P. aeruginosa and incubating the contaminated instruments in a SAFI solution for 30 minutes. […] Bacteria present after overnight incubation were determined by standard plate counts. […]

CCO [70% ethanol, ethanol]
effectiveness in killing bacteria (comparison treatment): effective in killing bacteria
